The values below come from ChEMBL document CHEMBL6092168, “Identification of novel indolinone derivatives as CTSC inhibitors to treat inflammatory bowel disease by modulating inflammatory factors” (Eur J Med Chem, 2024).

A short description of data set [1]: Acute toxicity in ICR mouse assessed as heart pathological change at 1500 mg/kg, po administered daily for 7 days by H and E staining based analysis. Type of data set: organism-based. To be noted: in vivo, 168 h, time 7 day.
For data set [2], the system named is Mus musculus. The data set is described as follows: Anti-inflammatory activity in DSS-induced ulcerative colitis male C57BL/6 mouse model assessed as increase in colon length at 60 mg/kg administered via gavage for 10 days. Type of data set: functional, organism-based. To be noted: time 10.0 day.
For data set [3], the system named is Mus musculus. The data set is described as follows: Anti-inflammatory activity in DSS-induced ulcerative colitis male C57BL/6 mouse model assessed as reduction in cathepsin G level in colon at 15 to 30 mg/kg administered via gavage for 10 days. Type of data set: functional, organism-based. To be noted: dose 15-30 mg/kg, time 10.0 day.
For data set [4], the target named is T1, Neutrophil elastase (Mus musculus) (UniProt Q3UP87).
T1 sequence (whole entry): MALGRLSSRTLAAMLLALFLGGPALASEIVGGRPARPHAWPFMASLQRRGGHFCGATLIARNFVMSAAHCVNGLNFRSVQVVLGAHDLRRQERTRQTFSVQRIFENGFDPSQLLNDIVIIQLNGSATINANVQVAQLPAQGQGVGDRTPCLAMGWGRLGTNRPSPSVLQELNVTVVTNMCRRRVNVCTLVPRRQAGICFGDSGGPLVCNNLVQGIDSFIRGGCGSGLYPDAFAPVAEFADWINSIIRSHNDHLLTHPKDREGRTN
The data set is described as follows: In vivo inhibition of neutrophil elastase in C57BL/6 mouse assessed as reduction in neutrophil elastase activity in blood at 30 mg/kg, po administered once daily for 6 days by fluorescence based microplate reader relative to control. Type of data set: functional, organism-based. The conditions noted are these: time 6.0 day.

Data set [5] deals with T2, Dipeptidyl peptidase 1 (Mus musculus) (UniProt P97821).
T2 sequence (whole entry): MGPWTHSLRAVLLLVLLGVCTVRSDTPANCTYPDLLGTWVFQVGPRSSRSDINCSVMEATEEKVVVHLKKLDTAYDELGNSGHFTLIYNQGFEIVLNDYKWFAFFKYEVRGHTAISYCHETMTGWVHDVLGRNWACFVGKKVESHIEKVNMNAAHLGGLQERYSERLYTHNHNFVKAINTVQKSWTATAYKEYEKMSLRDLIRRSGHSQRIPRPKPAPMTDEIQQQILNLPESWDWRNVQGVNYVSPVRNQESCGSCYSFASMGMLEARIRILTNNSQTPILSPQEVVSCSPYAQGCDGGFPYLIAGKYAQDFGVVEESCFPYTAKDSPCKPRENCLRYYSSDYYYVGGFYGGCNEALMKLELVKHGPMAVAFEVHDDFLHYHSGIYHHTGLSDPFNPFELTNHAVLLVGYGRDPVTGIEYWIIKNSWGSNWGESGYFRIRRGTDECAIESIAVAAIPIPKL
The data set is described as follows: In vivo inhibition of Cathepsin C in C57BL/6 mouse assessed as reduction in cathepsin C activity in bone marrow at 15 mg/kg, po administered once daily for 6 days by fluorescence based microplate reader relative to control. The conditions noted are these: time 6.0 day. Type of data set: functional, organism-based.

Data set [6] has as its target T2, Dipeptidyl peptidase 1 (Mus musculus). Nature of the data set: In vivo inhibition of Cathepsin C in C57BL/6 mouse assessed as reduction in cathepsin C activity in bone marrow at 30 mg/kg, po administered once daily for 6 days by fluorescence based microplate reader relative to control. Type of data set: functional, organism-based. The conditions noted are these: time 6.0 day.

Data set [7] can be described thus: AUC (0 to infinity) in male Sprague-Dawley rat at 2 mg/kg, iv measured at 5 to 1440 mins by LC-MS/MS analysis. To be noted: in vivo, time 5-1440 min. Type of data set: ADME, organism-based.
The test system of data set [8] is Mus musculus. The data set is described as follows: Anti-inflammatory activity in DSS-induced ulcerative colitis male C57BL/6 mouse model assessed as reduction in proteinase 3 level in colon at 60 mg/kg administered via gavage for 10 days relative to control. Type of data set: functional. Also on record: scale not given: the % may be the effect or the level left. The conditions noted are these: time 10 day.

Data set [9] relates to Mus musculus. The data set is described as follows: Anti-inflammatory activity in DSS-induced ulcerative colitis male C57BL/6 mouse model assessed as reduction in IL-6 expression in colon administered via gavage for 10 days by ELISA. Type of data set: functional, organism-based. To be noted: dose 15-60 mg/kg, time 10.0 day.
Data set [10] is described as follows: Acute toxicity in ICR mouse assessed as kidney pathological change at 1500 mg/kg, po administered daily for 7 days by H and E staining based analysis. Type of data set: organism-based. To be noted: in vivo, 168 h, time 7 day.
For data set [11], the target named is T2, Dipeptidyl peptidase 1 (Mus musculus). Nature of the data set: In vivo inhibition of Cathepsin C in C57BL/6 mouse assessed as reduction in cathepsin C activity in blood at 30 mg/kg, po administered once daily for 6 days by fluorescence based microplate reader relative to control. Type of data set: functional, organism-based. The conditions noted are these: time 6.0 day.

For data set [12], the system named is RAW264.7. Nature of the data set: Anti-inflammatory activity in LPS-stimulated mouse RAW264.7 cells assessed as reduction in IL-6 production incubated for 24 hrs by ELISA. Type of data set: functional, cell-based. The conditions noted are these: dose 0.62-5 µM.
Data set [13] deals with T3, Cathepsin G (Mus musculus) (UniProt P28293).
T3 sequence (whole entry): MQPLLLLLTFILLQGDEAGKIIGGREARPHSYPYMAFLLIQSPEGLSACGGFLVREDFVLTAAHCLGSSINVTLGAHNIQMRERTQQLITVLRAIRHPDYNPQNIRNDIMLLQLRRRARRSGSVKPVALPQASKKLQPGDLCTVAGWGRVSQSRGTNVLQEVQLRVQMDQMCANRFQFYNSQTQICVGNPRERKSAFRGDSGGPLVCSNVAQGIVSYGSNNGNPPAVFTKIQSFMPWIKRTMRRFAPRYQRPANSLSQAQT
The data set is described as follows: In vivo inhibition of Cathepsin G in C57BL/6 mouse assessed as reduction in cathepsin G activity in blood administered orally once daily for 6 days by fluorescence based microplate reader. Type of data set: functional, organism-based. The conditions noted are these: dose 5-30 mg/kg, route po, time 6.0 day.

Data set [14] in a line: Acute toxicity in ICR mouse assessed as liver pathological change at 1500 mg/kg, po administered daily for 7 days by H and E staining based analysis. To be noted: in vivo, 168 h, time 7 day. Type of data set: organism-based.
For data set [15], the system named is Mus musculus. The data set is described as follows: Anti-inflammatory activity in DSS-induced ulcerative colitis male C57BL/6 mouse model assessed as reduction in crypt loss in colon at 60 mg/kg administered via gavage for 10 days by H and E staining based analysis. Type of data set: functional, organism-based. To be noted: time 10.0 day.
A short description of data set [16]: MRT in male Sprague-Dawley rat at 10 mg/kg, po measured at 5 to 1440 mins by LC-MS/MS analysis. Type of data set: ADME, organism-based. The conditions noted are these: in vivo, time 5-1440 min.
The subject of data set [17] is Mus musculus. Nature of the data set: Anti-inflammatory activity in DSS-induced ulcerative colitis male C57BL/6 mouse model assessed as reduction in inflammatory epithelial destruction in colon at 60 mg/kg administered via gavage for 10 days by H and E staining based analysis. Type of data set: functional, organism-based. The conditions noted are these: time 10.0 day.

Data set [18] can be described thus: Half life in male Sprague-Dawley rat at 10 mg/kg, po measured at 5 to 1440 mins by LC-MS/MS analysis. Type of data set: ADME, organism-based. The conditions noted are these: in vivo, time 5-1440 min.
Data set [19] in a line: Acute toxicity in ICR mouse assessed as body weight loss at 500 mg/kg, po administered twice daily for 7 days. Type of data set: organism-based. The conditions noted are these: in vivo, 168 h, time 7 day.
Data set [20] concerns RAW264.7. Nature of the data set: Anti-inflammatory activity in mouse RAW264.7 cells assessed as inhibition of LPS-induced NO production preincubated for 1 hr followed by LPS addition and measured after 24 hrs by Griess reagent based assay. Type of data set: functional, cell-based.
Data set [21] can be described thus: Half life in male Sprague-Dawley rat at 2 mg/kg, iv measured at 5 to 1440 mins by LC-MS/MS analysis. Type of data set: ADME, organism-based. The conditions noted are these: in vivo, time 5-1440 min.
Data set [22] concerns the target T3, Cathepsin G (Mus musculus). The data set is described as follows: In vivo inhibition of Cathepsin G in C57BL/6 mouse assessed as reduction in cathepsin G activity in bone marrow at 30 mg/kg, po administered once daily for 6 days by fluorescence based microplate reader relative to control. Type of data set: functional, organism-based. To be noted: time 6.0 day.

pIC50: −log10 of the molar value. The source made the active and inactive calls. The calls are words filed in the database; no cut-off is given here. Some results are limits rather than exact numbers.

In the case of `O=C1Nc2c(cccc2-c2ccc(NC3CCOCC3)cc2)/C1=C/c1ccnc2ccccc12`, the Activity entry in [1] is “Non-toxic”; in data set [2] it was “Active; Significantly More Effective Than In Mesalazine Treatment Group”; in [8], 47%; in [9] it was “Dose-dependent-effect; Significant Reduction Observed In High Dose Group”; in [10], “Non-toxic”; in [12], “Dose-dependent-effect”. For the same compound, the Activity result in data set [14] and in [19] was “Non-toxic” throughout. Moreover, in data set [3], the outcome was inactive. Also, the inhibition in data set [4] is 42.9%; in data set [5], less than 50%; in data set [6], 36.5%; in [11], 27.2%; in data set [13], “Dose-dependent-effect”; in data set [22], 55.2%. The compound also showed an area under the curve (AUC) in data set [7] of 915.64 µg·h/L. The outcome in data set [15] and in data set [17] was Active. Besides, the MRT in data set [16] stood at 2.98 h. This compound gave a half-life in data set [18] of 106 min. Also, the pIC50 in data set [20] is 5.26. For the same compound, the t1/2 in [21] was 2.26 h.
